According to PubChem BioAssay (NCI):
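Five compound concentrations were applied to cells in 96-well plates for 48 hours; endpoints were derived by simple linear interpolation of the resulting dose-response curve. Definition used: TGI = concentration required for complete inhibition of growth.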

What was measured:
Test in all cases: NCI tumour cell line growth inhibition, 48 h
786-0 renal = system: 786-0 renal
A498 renal = system: A498 renal
A549 NSCLC = system: A549 NSCLC
ACHN renal = system: ACHN renal
BT-549 breast = system: BT-549 breast
CAKI-1 renal = system: CAKI-1 renal
CCRF-CEM leukemia = system: CCRF-CEM leukemia
COLO 205 colon = system: COLO 205 colon
DU-145 prostate = system: DU-145 prostate
EKVX NSCLC = system: EKVX NSCLC
HCC-2998 colon = system: HCC-2998 colon
HCT-116 colon = system: HCT-116 colon
HCT-15 colon = system: HCT-15 colon
HL-60(TB) leukemia = system: HL-60(TB) leukemia
HOP-62 NSCLC = system: HOP-62 NSCLC
HOP-92 NSCLC = system: HOP-92 NSCLC
HS 578T breast = system: HS 578T breast
HT29 colon = system: HT29 colon
IGROV1 ovarian = system: IGROV1 ovarian
K-562 leukemia = system: K-562 leukemia
KM12 colon = system: KM12 colon
LOX IMVI melanoma = system: LOX IMVI melanoma
M14 melanoma = system: M14 melanoma
MALME-3M melanoma = system: MALME-3M melanoma
MCF7 breast = system: MCF7 breast
MDA-MB-231 breast = system: MDA-MB-231 breast
MDA-MB-435 = system: MDA-MB-435
MDA-N = system: MDA-N
NCI-H226 lung = system: NCI-H226 lung
NCI-H23 lung = system: NCI-H23 lung
NCI-H460 lung = system: NCI-H460 lung
NCI-H522 lung = system: NCI-H522 lung
NCI/ADR-RES ovarian = system: NCI/ADR-RES ovarian
OVCAR-3 ovarian = system: OVCAR-3 ovarian
OVCAR-4 ovarian = system: OVCAR-4 ovarian
OVCAR-5 ovarian = system: OVCAR-5 ovarian
OVCAR-8 ovarian = system: OVCAR-8 ovarian
PC-3 prostate = system: PC-3 prostate
RPMI-8226 leukemia = system: RPMI-8226 leukemia
RXF 393 renal = system: RXF 393 renal
SF-268 CNS = system: SF-268 CNS
SF-295 CNS = system: SF-295 CNS
SK-MEL-2 melanoma = system: SK-MEL-2 melanoma
SK-MEL-28 melanoma = system: SK-MEL-28 melanoma
SK-MEL-5 melanoma = system: SK-MEL-5 melanoma
SK-OV-3 ovarian = system: SK-OV-3 ovarian
SN12C renal = system: SN12C renal
SNB-19 CNS = system: SNB-19 CNS
SNB-75 CNS = system: SNB-75 CNS
SR leukemia = system: SR leukemia
SW-620 colon = system: SW-620 colon
T-47D breast = system: T-47D breast
TK-10 renal = system: TK-10 renal
U251 CNS = system: U251 CNS
UACC-257 melanoma = system: UACC-257 melanoma
UACC-62 melanoma = system: UACC-62 melanoma
UO-31 renal = system: UO-31 renal
MOLT-4 leukemia = system: MOLT-4 leukemia
SF-539 CNS = system: SF-539 CNS

SMILES: CC(CSC(=N)N)C(N)=O (stereo unspecified)
- TGI (786-0 renal): > 100 µM
- TGI (A498 renal): > 100 µM
- TGI (A549 NSCLC): > 100 µM
- TGI (ACHN renal): > 100 µM
- TGI (BT-549 breast): > 100 µM
- TGI (CAKI-1 renal): > 100 µM
- TGI (CCRF-CEM leukemia): > 100 µM
- TGI (COLO 205 colon): > 100 µM
- TGI (DU-145 prostate): > 100 µM
- TGI (EKVX NSCLC): > 100 µM
- TGI (HCC-2998 colon): > 100 µM
- TGI (HCT-116 colon): > 100 µM
- TGI (HCT-15 colon): > 100 µM
- TGI (HL-60(TB) leukemia): > 100 µM
- TGI (HOP-62 NSCLC): > 100 µM
- TGI (HOP-92 NSCLC): > 100 µM
- TGI (HS 578T breast): > 100 µM
- TGI (HT29 colon): > 100 µM
- TGI (IGROV1 ovarian): > 100 µM
- TGI (K-562 leukemia): > 100 µM
- TGI (KM12 colon): > 100 µM
- TGI (LOX IMVI melanoma): > 100 µM
- TGI (M14 melanoma): > 100 µM
- TGI (MALME-3M melanoma): > 100 µM
- TGI (MCF7 breast): > 100 µM
- TGI (MDA-MB-231 breast): > 100 µM
- TGI (MDA-MB-435): > 100 µM
- TGI (MDA-N): > 100 µM
- TGI (NCI-H226 lung): > 100 µM
- TGI (NCI-H23 lung): > 100 µM
- TGI (NCI-H460 lung): > 100 µM
- TGI (NCI-H522 lung): > 100 µM
- TGI (NCI/ADR-RES ovarian): > 100 µM
- TGI (OVCAR-3 ovarian): > 100 µM
- TGI (OVCAR-4 ovarian): > 100 µM
- TGI (OVCAR-5 ovarian): > 100 µM
- TGI (OVCAR-8 ovarian): > 100 µM
- TGI (PC-3 prostate): > 100 µM
- TGI (RPMI-8226 leukemia): > 100 µM
- TGI (RXF 393 renal): > 100 µM
- TGI (SF-268 CNS): > 100 µM
- TGI (SF-295 CNS): > 100 µM
- TGI (SK-MEL-2 melanoma): > 100 µM
- TGI (SK-MEL-28 melanoma): > 100 µM
- TGI (SK-MEL-5 melanoma): > 100 µM
- TGI (SK-OV-3 ovarian): > 100 µM
- TGI (SN12C renal): > 100 µM
- TGI (SNB-19 CNS): > 100 µM
- TGI (SNB-75 CNS): > 100 µM
- TGI (SR leukemia): > 100 µM
- TGI (SW-620 colon): > 100 µM
- TGI (T-47D breast): > 100 µM
- TGI (TK-10 renal): > 100 µM
- TGI (U251 CNS): > 100 µM
- TGI (UACC-257 melanoma): > 100 µM
- TGI (UACC-62 melanoma): > 100 µM
- TGI (UO-31 renal): > 100 µM

SMILES: COc1ccc(-n2c(CCC(=O)O)nc3c2C(=O)c2ccccc2C3=O)cc1
- TGI (786-0 renal): > 100 µM
- TGI (A498 renal): > 100 µM
- TGI (A549 NSCLC): > 100 µM
- TGI (ACHN renal): > 100 µM
- TGI (BT-549 breast): > 100 µM
- TGI (CAKI-1 renal): > 100 µM
- TGI (CCRF-CEM leukemia): > 100 µM
- TGI (COLO 205 colon): > 100 µM
- TGI (DU-145 prostate): > 100 µM
- TGI (EKVX NSCLC): > 100 µM
- TGI (HCC-2998 colon): > 100 µM
- TGI (HCT-116 colon): > 100 µM
- TGI (HCT-15 colon): > 100 µM
- TGI (HL-60(TB) leukemia): > 100 µM
- TGI (HOP-62 NSCLC): > 100 µM
- TGI (HS 578T breast): > 100 µM
- TGI (HT29 colon): > 100 µM
- TGI (K-562 leukemia): > 100 µM
- TGI (KM12 colon): > 100 µM
- TGI (LOX IMVI melanoma): > 100 µM
- TGI (M14 melanoma): > 100 µM
- TGI (MCF7 breast): > 100 µM
- TGI (MDA-MB-231 breast): > 100 µM
- TGI (MDA-MB-435): > 100 µM
- TGI (MDA-N): > 100 µM
- TGI (MOLT-4 leukemia): > 100 µM
- TGI (NCI-H226 lung): > 100 µM
- TGI (NCI-H23 lung): > 100 µM
- TGI (NCI-H460 lung): > 100 µM
- TGI (NCI-H522 lung): > 100 µM
- TGI (NCI/ADR-RES ovarian): > 100 µM
- TGI (OVCAR-3 ovarian): > 100 µM
- TGI (OVCAR-4 ovarian): > 100 µM
- TGI (OVCAR-5 ovarian): > 100 µM
- TGI (OVCAR-8 ovarian): > 100 µM
- TGI (PC-3 prostate): > 100 µM
- TGI (RPMI-8226 leukemia): > 100 µM
- TGI (RXF 393 renal): > 100 µM
- TGI (SF-268 CNS): > 100 µM
- TGI (SF-295 CNS): > 100 µM
- TGI (SF-539 CNS): > 100 µM
- TGI (SK-MEL-2 melanoma): > 100 µM
- TGI (SK-MEL-28 melanoma): > 100 µM
- TGI (SK-MEL-5 melanoma): > 100 µM
- TGI (SK-OV-3 ovarian): > 100 µM
- TGI (SN12C renal): > 100 µM
- TGI (SNB-19 CNS): > 100 µM
- TGI (SNB-75 CNS): > 100 µM
- TGI (SR leukemia): > 100 µM
- TGI (SW-620 colon): > 100 µM
- TGI (T-47D breast): > 100 µM
- TGI (TK-10 renal): > 100 µM
- TGI (U251 CNS): > 100 µM
- TGI (UACC-257 melanoma): > 100 µM
- TGI (UACC-62 melanoma): > 100 µM
- TGI (UO-31 renal): > 100 µM

SMILES: CS(=O)(=O)N1CC(CCl)c2ccc(NO)cc21 (stereo unspecified)
- TGI (786-0 renal): 28 µM
- TGI (A498 renal): 31.5 µM
- TGI (A549 NSCLC): > 100 µM
- TGI (ACHN renal): 21 µM
- TGI (BT-549 breast): 25.1 µM
- TGI (CAKI-1 renal): 27.6 µM
- TGI (CCRF-CEM leukemia): 5.1 µM
- TGI (COLO 205 colon): > 57.2 µM
- TGI (DU-145 prostate): > 100 µM
- TGI (EKVX NSCLC): 32.5 µM
- TGI (HCC-2998 colon): 28.5 µM
- TGI (HCT-116 colon): 32 µM
- TGI (HCT-15 colon): 28.6 µM
- TGI (HL-60(TB) leukemia): 20 µM
- TGI (HOP-62 NSCLC): 47.4 µM
- TGI (HOP-92 NSCLC): 27.9 µM
- TGI (HS 578T breast): 60 µM
- TGI (HT29 colon): 29.4 µM
- TGI (IGROV1 ovarian): 29 µM
- TGI (K-562 leukemia): 8.58 µM
- TGI (KM12 colon): 36.2 µM
- TGI (LOX IMVI melanoma): 29.4 µM
- TGI (M14 melanoma): 34.3 µM
- TGI (MALME-3M melanoma): 37.7 µM
- TGI (MCF7 breast): 35.5 µM
- TGI (MDA-MB-231 breast): 30.5 µM
- TGI (MDA-MB-435): 35.4 µM
- TGI (MDA-N): 32.4 µM
- TGI (MOLT-4 leukemia): 19 µM
- TGI (NCI-H226 lung): > 78 µM
- TGI (NCI-H23 lung): 18 µM
- TGI (NCI-H460 lung): 34.4 µM
- TGI (NCI-H522 lung): 16.3 µM
- TGI (NCI/ADR-RES ovarian): 22.9 µM
- TGI (OVCAR-3 ovarian): 40.7 µM
- TGI (OVCAR-4 ovarian): 40.7 µM
- TGI (OVCAR-5 ovarian): 40.5 µM
- TGI (OVCAR-8 ovarian): 27.9 µM
- TGI (PC-3 prostate): 39.5 µM
- TGI (RPMI-8226 leukemia): 16 µM
- TGI (RXF 393 renal): 10.9 µM
- TGI (SF-268 CNS): 22.5 µM
- TGI (SF-295 CNS): 61.9 µM
- TGI (SF-539 CNS): 26.1 µM
- TGI (SK-MEL-2 melanoma): 41.3 µM
- TGI (SK-MEL-28 melanoma): 40.3 µM
- TGI (SK-MEL-5 melanoma): 28.2 µM
- TGI (SK-OV-3 ovarian): > 31.6 µM
- TGI (SN12C renal): 32.6 µM
- TGI (SNB-19 CNS): > 86.4 µM
- TGI (SNB-75 CNS): 32.3 µM
- TGI (SW-620 colon): > 50.4 µM
- TGI (T-47D breast): 60.1 µM
- TGI (TK-10 renal): 51.1 µM
- TGI (U251 CNS): 32.8 µM
- TGI (UACC-257 melanoma): 40.6 µM
- TGI (UACC-62 melanoma): 26.5 µM
- TGI (UO-31 renal): 16.5 µM
